Structures are written as SMILES.

The test system of test [1] is A2E-BDP present in human retinal pigment epithelial cells (ARPE-19). The test is described as follows: Screening of ability to remove A2E-fluorescent labeling substance (A2E-BDP), lysate fluorescence. The test is classed as cell-based. The note with it: ARPE-19, 24 h, ARPE-19 loaded with 10 μM A2E-BDP 24 h, test compound 50 μM once, fluorescence ex 485/em 535 nm, read-out: Capacity (%) to remove A2E-BDP at 50 μM. On the procedure: The human retinal pigment epithelial cell line (ARPE-19) used in the experiment was provided by ATCC (American Type Culture Collection). The ARPE-19 cell line was cultured in DMEM medium containing 10% FBS. After culture, the cells were dispensed into 96-well plates at a concentration of 4×10^3 cells/well and cultured for 24 hours. The ARPE-19 cell line was treated with A2E-fluorescent labeling substance (A2E-BDP) at a concentration of 10 μM for 24 hours to induce the accumulation of A2E-BDP in the ARPE-19 cell line.
In order to evaluate the intracellular A2E removal ability of the compound of the present invention, an easily detectable A2E-fluorescent labeling substance (A2E-BDP) was used. The ARPE-19 cells prepared by the above method were treated with each test compound at a concentration of 50 μM once, and then cultured for 24 hours. The cells were lysed by adding a cell lysis buffer containing a protease inhibitor (50 mM Tris-chloride, pH 8.0, 150 mM sodium chloride, 1% NP-40, 1% sodium deoxycholate, 1% sodium dodecyl sulfate, and 2 mM ethylenediamine tetraacetic acid) to each 96-well. The prepared cell lysate was transferred to a white 96-well plate, and the fluorescence intensity was measured using a fluorescence microplate reader (VICTOR™ X3, Perkin Elmer, USA) (excitation 485 nm, emission 535 nm).

Test [2] relates to LC3-II. The test is described as follows: LC3-II production capacity at 10 μM (Table 4). The class given is cell-based. The settings on record: Homo sapiens, 12 h. On the procedure:
(§1) ARPE-19 was dispensed into a 6-well plate at a concentration of 1×10^5 cells/well and cultured for 24 hours. Then, cells were treated with example 17 compound of the present invention at concentrations of 10, 25, and 50 μM for 12 hours. Then, a cell lysis buffer containing a protease inhibitor was added to prepare a cell lysate. The LC3-II level was measured by Western immunoblotting using an anti-LC3-II antibody (Cell Signaling Technology, MA, USA). As an internal control, an antibody against β-actin (Cell Signaling Technology) was used and measured by Western immunoblotting in the same manner as above, and is shown in FIG. 6 (upper graph).
(§2) The autophagy activation effect of example compounds expected to have autophagy activation ability and low cytotoxicity among the example compounds in Table 2 above in human retinal pigment epithelial cells was evaluated according to Experimental Example 7. That is, the autophagy activation effect through the increase of LC3-II was evaluated in a concentration-dependent manner, and the results are shown in FIGS. 15 and 16.

The test system of test [3] is LC3-II. The test is described as follows: Concentration-dependent autophagy activation through increase of LC3-II (FIGS. 15 and 16). The class given is cell-based, human. On the procedure: as §1, §2

Consider `CCCc1cc(-c2cc(Br)ccc2OC)no1` [Example 1, 3-(5-bromo-2-methoxyphenyl)-5-propylisoxazole], for which the inhibition at 50 µM in test [1] stood at 20.8%.
Take `CCCc1cc(-c2cc(Br)ccc2O)no1` [Example 2, 4-bromo-2-(5-propylisoxazole-3-yl)phenol]: the inhibition at 50 µM in test [1] amounted to 28.2%.
Take `CCCc1ccc(OC)c(-c2cc(CCC)on2)c1` [Example 3, 3-(2-methoxy-5-propylphenyl)-5-propylisoxazole]: in test [1], the inhibition at 50 µM came out at 0.6%.
Still for that read-out and setting: in the case of `C=CCc1ccc(OC)c(-c2cc(CCC)on2)c1` [Example 4, 3-(5-allyl-2-methoxyphenyl)-5-propylisoxazole] it was 24.7%; in that of `C=CCc1ccc(O)c(-c2cc(CCC)on2)c1` [Example 5, 4-allyl-2-(5-propylisoxazole-3-yl)phenol], 26.9%.
Turning to `CCCc1ccc(O)c(-c2cc(CCC)on2)c1` [Example 6, 4-propyl-2-(5-propylisoxazole-3-yl)phenol], in test [1], the inhibition at 50 µM amounted to 24%.
Still for that read-out and setting: as for `COc1ccc(Br)cc1-c1cc(CO)on1` [Example 7, (3-(5-bromo-2-methoxyphenyl)isoxazole-5-yl)methanol], the figure is 16.6%; as for `OCc1cc(-c2cc(Br)ccc2O)no1` [Example 8, 4-bromo-2-(5-(hydroxymethyl)isoxazole-3-yl)phenol], -15.3%; as for `C=CCOCc1cc(-c2cc(Br)ccc2OC)no1` [Example 9, 5-((allyloxy)methyl)-3-(5-bromo-2-methoxyphenyl)isoxazole], 26.2%.
On the same count and under the same terms, in the case of `CCCc1ccc(OC)c(-c2cc(CO)on2)c1` [Example 10, (3-(2-methoxy-5-propylphenyl)isoxazole-5-yl)methanol] it was 7.7%; in that of `CCOC(=O)COCc1cc(-c2cc(Br)ccc2OC)no1` [Example 12, ethyl 2-((3-(5-bromo-2-methoxyphenyl)isoxazole-5-yl)methoxy)acetate], 21.7%.
Consider `COCc1cc(-c2cc(Br)ccc2OC)no1` [Example 13, 3-(5-bromo-2-methoxyphenyl)-5-(methoxymethyl)isoxazole], for which the inhibition at 50 µM in test [1] came out at 31%.
Still for that read-out and setting: in the case of `CCCc1ccc(O)c(-c2cc(CO)on2)c1` [Example 14, 2-(5-(hydroxymethyl)isoxazole-3-yl)-4-propylphenol] it was 35.2%.
Take `C=CCc1ccc(OC)c(-c2cc(CO)on2)c1` [Example 15, (3-(5-allyl-2-methoxyphenyl)isoxazole-5-yl)methanol]: the inhibition at 50 µM in test [1] is 48.1%.
As to `C=CCc1ccc(O)c(-c2cc(CO)on2)c1` [Example 16, 4-allyl-2-(5-(hydroxymethyl)isoxazole-3-yl)phenol], the inhibition at 50 µM in test [1] was 49.9%.
As to `C=CCc1ccc(OC)c(-c2cc(COCC(=O)OCC)on2)c1` [Example 19, ethyl 2-((3-(5-allyl-2-methoxyphenyl)isoxazole-5-yl)methoxy)acetate], the inhibition at 50 µM in test [1] is 37.4%.
On to `CCCc1ccc(OC)c(-c2cc(COC)on2)c1` [Example 20, 3-(2-methoxy-5-propylphenyl)-5-(methoxymethyl)isoxazole], for which the inhibition at 50 µM in test [1] amounted to 17.2%.
Same read-out and setting: in the case of `C=CCc1ccc(OC)c(-c2cc(CN3CCN(CC=C)CC3)on2)c1` [Example 22, 3-(5-allyl-2-methoxyphenyl)-5-((4-allylpiperazine-1-yl)methyl)isoxazole] it was 47.4%.
Take `C=CCc1ccc(OC)c(-c2cc(CN3CCN(Cc4ccccc4)CC3)on2)c1` [Example 23, 3-(5-allyl-2-methoxyphenyl)-5-((4-benzylpiperazine-1-yl)methyl)isoxazole]: the inhibition at 50 µM in test [1] is 45.5%.
As to `C=CCc1ccc(OC)c(-c2cc(CN3CCN(CC(=O)OCC)CC3)on2)c1` [Example 24, ethyl 2-(4-((3-(5-allyl-2-methoxyphenyl)isoxazole-5-yl)methyl)piperazine-1-yl)acetate], in test [1], the inhibition at 50 µM was 38.5%.
As to `C=CCc1ccc(OC)c(-c2cc(CN3CCN(C(=O)OC(C)(C)C)CC3)on2)c1` [Example 25, tert-butyl 4-((3-(5-allyl-2-methoxyphenyl)isoxazole-5-yl)methyl)piperazine-1-carboxylate], the inhibition at 50 µM in test [1] was 45.9%.
`COc1ccc(Br)cc1-c1cc(CN2CCNCC2)on1` [Example 28, 3-(5-bromo-2-methoxyphenyl)-5-(piperazine-1-ylmethyl)isoxazole] displayed a fold induction at 10 µM in test [2] of 4.6. The “autophagy activation effect through the increase of LC3-II” value in test [3] was “excellent autophagy activation effects”.
As for `CCCc1ccc(OC)c(-c2cc(CN3CCNCC3)on2)c1` [Example 30, 3-(2-methoxy-5-propylphenyl)-5-(piperazine-1-ylmethyl)isoxazole], the fold induction at 10 µM in test [2] came out at 2.3. Further, the “autophagy activation effect through the increase of LC3-II” value in test [3] is “excellent autophagy activation effects”.
In test [2], `COc1ccc(C(F)(F)F)cc1-c1cc(CN2CCNCC2)on1` [Example 34, 3-(2-methoxy-5-(trifluoromethyl)phenyl)-5-(piperazine-1-ylmethyl)isoxazole] returned a fold induction at 10 µM of 2.5. Also, the “autophagy activation effect through the increase of LC3-II” value in test [3] is recorded as “excellent autophagy activation effects”.
For `C=CCc1ccc(OC)c(-c2cc(CN3CCN(C)CC3)on2)c1` [Example 41, 3-(5-allyl-2-methoxyphenyl)-5-((4-methylpiperazine-1-yl)methyl)isoxazole], the fold induction at 10 µM in test [2] came out at 2.3. For the same compound, the “autophagy activation effect through the increase of LC3-II” value in test [3] is “excellent autophagy activation effects”.
For `CCCc1ccc(OC)c(-c2cc(CN3CCN(C)CC3)on2)c1` [Example 42, 3-(2-methoxy-5-propylphenyl)-5-((4-methylpiperazine-1-yl)methyl)isoxazole] the same measures were 2.3 and “excellent autophagy activation effects”.
`COc1ccc(C(C)C)cc1-c1cc(CN2CCNCC2)on1` [Example 47, 3-(5-isopropyl-2-methoxyphenyl)-5-(piperazine-1-ylmethyl)isoxazole] came in with a fold induction at 10 µM in test [2] of 2.7. Besides, the “autophagy activation effect through the increase of LC3-II” value in test [3] was “excellent autophagy activation effects”.
The compound `CCCc1cc(-c2cc(CN3CCNCC3)on2)c(OC)cc1F` [Example 58, 3-(4-fluoro-2-methoxy-5-propylphenyl)-5-(piperazine-1-ylmethyl)isoxazole] yielded a fold induction at 10 µM in test [2] of 3.2. The “autophagy activation effect through the increase of LC3-II” value in test [3] is reported as “excellent autophagy activation effects”.
In the same order, the values of `CCCc1cc(-c2cc(CN3CCN(C)CC3)on2)c(OC)cc1F` [Example 59, 3-(4-fluoro-2-methoxy-5-propylphenyl)-5-((4-methylpiperazine-1-yl)methyl)isoxazole] are 3.1 and “excellent autophagy activation effects”.
In the same order, the values of `CCCc1ccc(OC(F)(F)F)c(-c2cc(CN3CCN(C)CC3)on2)c1` [Example 60, 5-((4-methylpiperazine-1-yl)methyl)-3-(5-propyl-2-(trifluoromethoxy)phenyl)isoxazole] are 3.1 and “excellent autophagy activation effects”.
In test [2], `C=C(C)Cc1ccc(OC)c(-c2cc(CO)on2)c1` [Example 68, (3-(2-methoxy-5-(2-methylallyl)phenyl)isoxazole-5-yl)methanol] had a fold induction at 10 µM of 7.7.
`COc1ccc(CC=C(C)C)cc1-c1cc(CN2CCN(C)CC2)on1` [Example 69, 3-(2-methoxy-5-(3-methylbut-2-en-1-yl)phenyl)-5-((4-methylpiperazine-1-yl)methyl)isoxazole] gave a fold induction at 10 µM in test [2] of 5.
